Experimental data taken from patent US20250236608A1, “EGFR INHIBITORS” (Blueprint Medicines Corporation, priority 2022, published 2025).
Where a name gives a salt, the structure may show the parent alone.

Columns and labels:
EGFR L858R = EGFR L858R (Homo sapiens (Human), UniProt P00533, L858R); assay: Biochemical EGFR inhibition assay, EGFR L858R; details: Caliper mobility shift; 1.0 mM ATP or ATP Km; read-out: Enz EGFR_L858R IC50
EGFR (d746-750) = EGFR (d746-750) (Homo sapiens (Human), UniProt P00533, DEL746-750); assay: Biochemical EGFR inhibition assay, EGFR (d746-750); details: Caliper mobility shift; 1.0 mM ATP or ATP Km; read-out: Enz EGFR_Exon19-del746-750 IC50
Chain of EGFR (d746-750) (P00533 other isoform, or with tags, fused parts or gaps del 1-694/del 746-750 limits assumed): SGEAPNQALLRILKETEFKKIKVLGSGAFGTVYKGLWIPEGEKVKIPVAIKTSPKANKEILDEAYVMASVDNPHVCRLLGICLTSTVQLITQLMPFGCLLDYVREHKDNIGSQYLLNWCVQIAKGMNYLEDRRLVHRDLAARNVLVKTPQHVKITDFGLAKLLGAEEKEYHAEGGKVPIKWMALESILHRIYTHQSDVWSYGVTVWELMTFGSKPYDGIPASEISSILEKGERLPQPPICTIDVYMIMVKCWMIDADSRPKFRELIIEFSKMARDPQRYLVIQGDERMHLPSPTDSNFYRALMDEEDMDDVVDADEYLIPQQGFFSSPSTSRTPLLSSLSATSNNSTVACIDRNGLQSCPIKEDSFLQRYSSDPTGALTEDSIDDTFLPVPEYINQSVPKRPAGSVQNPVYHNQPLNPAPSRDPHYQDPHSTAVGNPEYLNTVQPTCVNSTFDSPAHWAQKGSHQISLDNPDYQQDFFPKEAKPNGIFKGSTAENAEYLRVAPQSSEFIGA

[1] = target: pEGFR (Tyr1068) in PC-9 cells (Ex19Del) (Homo sapiens (Human), UniProt P00533, DEL746-750); assay: PC-9 pEGFR AlphaLISA assay; type: cell-based; details: 4 hours incubation, p-EGFR (Tyr1068) AlphaLISA, read-out: Ext pEGFR_PC-9 Ex19Del IC50
Chain of pEGFR (Tyr1068) in PC-9 cells (Ex19Del) (P00533 other isoform, or with tags, fused parts or gaps del 746-750): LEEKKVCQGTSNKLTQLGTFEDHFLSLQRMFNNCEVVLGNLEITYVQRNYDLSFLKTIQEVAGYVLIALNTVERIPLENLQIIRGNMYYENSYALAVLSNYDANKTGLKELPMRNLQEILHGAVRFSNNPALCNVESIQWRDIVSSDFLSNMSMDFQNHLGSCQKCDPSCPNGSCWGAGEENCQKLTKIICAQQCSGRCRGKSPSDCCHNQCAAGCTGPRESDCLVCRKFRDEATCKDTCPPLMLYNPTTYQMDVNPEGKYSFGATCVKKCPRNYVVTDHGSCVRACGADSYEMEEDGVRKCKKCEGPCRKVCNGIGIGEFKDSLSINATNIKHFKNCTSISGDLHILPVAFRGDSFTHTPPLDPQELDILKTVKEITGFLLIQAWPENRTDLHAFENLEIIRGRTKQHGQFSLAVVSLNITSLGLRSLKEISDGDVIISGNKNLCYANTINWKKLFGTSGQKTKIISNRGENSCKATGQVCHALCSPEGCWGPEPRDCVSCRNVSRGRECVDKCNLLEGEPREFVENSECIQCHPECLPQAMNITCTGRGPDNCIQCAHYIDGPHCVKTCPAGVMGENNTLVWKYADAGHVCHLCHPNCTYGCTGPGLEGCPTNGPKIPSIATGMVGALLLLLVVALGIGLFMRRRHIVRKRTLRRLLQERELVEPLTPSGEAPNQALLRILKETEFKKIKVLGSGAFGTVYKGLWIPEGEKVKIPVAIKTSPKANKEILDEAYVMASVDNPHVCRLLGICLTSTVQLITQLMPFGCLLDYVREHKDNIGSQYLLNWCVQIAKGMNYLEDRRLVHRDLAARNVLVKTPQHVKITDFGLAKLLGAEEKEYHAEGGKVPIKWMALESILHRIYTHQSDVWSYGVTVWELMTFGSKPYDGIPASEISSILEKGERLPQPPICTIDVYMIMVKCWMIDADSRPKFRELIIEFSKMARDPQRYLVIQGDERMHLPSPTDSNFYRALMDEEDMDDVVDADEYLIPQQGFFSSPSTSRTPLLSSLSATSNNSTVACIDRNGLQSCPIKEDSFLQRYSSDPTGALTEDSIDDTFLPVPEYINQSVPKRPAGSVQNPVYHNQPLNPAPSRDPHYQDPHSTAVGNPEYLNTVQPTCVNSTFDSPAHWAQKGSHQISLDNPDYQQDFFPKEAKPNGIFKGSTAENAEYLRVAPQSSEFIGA
Summary of the method: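 Compounds are added in ten 4-fold dilutions to adherent cells grown in serum-containing (10% FBS) phenol-free DMEM and left for 4 hours at 37° C. Phosphorylated receptor in lysates is quantified by bead-based AlphaLISA. IC50 values derive from inhibition plotted against log dose.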

Chain of EGFR L858R (P00533 25-1210 L858R): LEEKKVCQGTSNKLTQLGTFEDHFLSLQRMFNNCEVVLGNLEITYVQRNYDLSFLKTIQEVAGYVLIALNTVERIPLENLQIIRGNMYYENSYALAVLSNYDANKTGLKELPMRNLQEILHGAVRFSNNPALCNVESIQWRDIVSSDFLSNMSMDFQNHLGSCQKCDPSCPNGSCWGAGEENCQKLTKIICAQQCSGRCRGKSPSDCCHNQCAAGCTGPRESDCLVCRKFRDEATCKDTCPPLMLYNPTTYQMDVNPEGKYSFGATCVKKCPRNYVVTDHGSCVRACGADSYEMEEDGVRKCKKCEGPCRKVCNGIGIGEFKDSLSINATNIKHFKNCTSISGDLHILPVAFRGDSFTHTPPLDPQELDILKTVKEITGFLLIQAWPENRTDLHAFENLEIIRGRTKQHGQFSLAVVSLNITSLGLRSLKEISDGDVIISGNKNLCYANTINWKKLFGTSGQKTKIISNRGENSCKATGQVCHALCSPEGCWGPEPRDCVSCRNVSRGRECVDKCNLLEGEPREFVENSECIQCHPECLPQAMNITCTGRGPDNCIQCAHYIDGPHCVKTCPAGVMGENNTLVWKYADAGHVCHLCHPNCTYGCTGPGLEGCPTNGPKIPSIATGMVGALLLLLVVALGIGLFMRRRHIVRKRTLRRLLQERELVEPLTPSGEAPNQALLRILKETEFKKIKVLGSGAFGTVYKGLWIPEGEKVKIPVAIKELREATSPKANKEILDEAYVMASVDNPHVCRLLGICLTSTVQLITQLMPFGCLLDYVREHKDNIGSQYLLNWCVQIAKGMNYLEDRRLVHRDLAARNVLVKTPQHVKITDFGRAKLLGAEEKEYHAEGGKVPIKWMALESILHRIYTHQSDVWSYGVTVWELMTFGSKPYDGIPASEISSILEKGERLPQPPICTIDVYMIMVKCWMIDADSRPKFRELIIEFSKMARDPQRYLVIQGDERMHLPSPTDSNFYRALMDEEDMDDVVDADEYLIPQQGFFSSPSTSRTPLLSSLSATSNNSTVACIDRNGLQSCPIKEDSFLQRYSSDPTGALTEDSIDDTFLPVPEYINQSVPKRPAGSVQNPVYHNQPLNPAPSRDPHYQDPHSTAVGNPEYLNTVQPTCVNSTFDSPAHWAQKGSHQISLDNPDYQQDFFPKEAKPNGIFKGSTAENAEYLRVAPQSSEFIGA

Compound | IC50 (EGFR L858R) | IC50 (EGFR (d746-750)) | IC50 [1]
COc1cc2ncnc(-c3cn(C)nc3-c3ccccc3)c2cc1NC(=O)C12CC(N(C)C)(C1)C2 [Example 341, 3-(dimethylamino)-N-(7-methoxy-4-(1-methyl-3-phenyl-1H-pyrazol-4-yl)quinazolin-6-yl)bicyclo[1.1.1]pentane-1-carboxamide trifluoroacetate] | 6.4 nM | 3 nM | 8.3 nM
CCOc1cc2ncnc(-c3cn(C)nc3-c3ccccc3)c2nc1NC(=O)C12CC(C1)C2 [Example 311, N-(7-ethoxy-4-(1-methyl-3-phenyl-1H-pyrazol-4-yl)pyrido[3,2-d]pyrimidin-6-yl)bicyclo[1.1.1]pentane-1-carboxamide] | 3.4 nM | 1.9 nM | 2.1 nM
COc1cc2ncnc(-c3cn(C)nc3-c3ccccc3)c2cc1NC(=O)c1cc2n(n1)CCCC2 [Example 225, N-(7-methoxy-4-(1-methyl-3-phenyl-1H-pyrazol-4-yl)quinazolin-6-yl)-4,5,6,7-tetrahydropyrazolo[1,5-a]pyridine-2-carboxamide] | 14 nM | 9 nM | 5.1 nM
COc1cc2ncnc(-c3cn(C)nc3-c3ccccc3)c2cc1N1CC2(COC2)C1 [Example 161, 6-(7-methoxy-4-(1-methyl-3-phenyl-1H-pyrazol-4-yl)quinazolin-6-yl)-2-oxa-6-azaspiro[3.3]heptane] | 4.6 nM | 2.5 nM | 8.1 nM
CCOc1cc2ncnc(-c3cn(C)nc3-c3ccc(F)cc3)c2nc1NC(=O)[C@@]12COC[C@@H]1C2 (single isomer, unassigned) [Example 385, (1R,5R)—N-(7-ethoxy-4-(3-(4-fluorophenyl)-1-methyl-1H-pyrazol-4-yl)pyrido[3,2-d]pyrimidin-6-yl)-3-oxabicyclo[3.1.0]hexane-1-carboxamide or (1S,5S)—N-(7-ethoxy-4-(3-(4-fluorophenyl)-1-methyl-1H-pyrazol-4-yl)pyrido[3,2-d]pyrimidin-6-yl)-3-oxabicyclo[3.1.0]hexane-1-carboxamide] | 1.7 nM | 0.4 nM | 0.7 nM
CCOc1cc2ncnc(-c3cn(C)nc3-c3ccccc3)c2nc1NC(=O)[C@@]12COC[C@@H]1C2 (single isomer, unassigned) [Example 380, (1R,5R)—N-(7-ethoxy-4-(1-methyl-3-phenyl-1H-pyrazol-4-yl)pyrido[3,2-d]pyrimidin-6-yl)-3-oxabicyclo[3.1.0]hexane-1-carboxamide or (1S,5S)—N-(7-ethoxy-4-(1-methyl-3-phenyl-1H-pyrazol-4-yl)pyrido[3,2-d]pyrimidin-6-yl)-3-oxabicyclo[3.1.0]hexane-1-carboxamide] | 2.5 nM | 0.7 nM | 1.4 nM
COc1cc2ncnc(-c3cn(C)nc3-c3ccccc3)c2cc1NC(=O)[C@@H]1C[C@H]1C(F)(F)F [Example 286, (1R,2R)—N-(7-methoxy-4-(1-methyl-3-phenyl-1H-pyrazol-4-yl)quinazolin-6-yl)-2-(trifluoromethyl)cyclopropane-1-carboxamide] | 3.5 nM | 1.6 nM | 4.3 nM
CN(C)C12CC(C(=O)Nc3nc4c(-c5cn(C)nc5-c5ccc(F)cc5)ncnc4cc3OC3CC3)(C1)C2 [Example 461, N-{7-cyclopropoxy-4-[3-(4-fluorophenyl)-1-methyl-1H-pyrazol-4-yl]pyrido[3,2-d]pyrimidin-6-yl}-3-(dimethylamino) bicyclo[1.1.1]pentane-1-carboxamide] | 12.7 nM | 2.9 nM | 7.2 nM
COc1cc2ncnc(-c3cn(C)nc3-c3ccccc3)c2cc1N1CC[C@@H](F)[C@H](O)C1 (single isomer, unassigned) [Example 173, (3R,4R)-4-fluoro-1-(7-methoxy-4-(1-methyl-3-phenyl-1H-pyrazol-4-yl)quinazolin-6-yl) piperidin-3-ol or (3S,4S)-4-fluoro-1-(7-methoxy-4-(1-methyl-3-phenyl-1H-pyrazol-4-yl)quinazolin-6-yl) piperidin-3-ol] | 9 nM | 3.6 nM | 13.8 nM
COc1cc2ncnc(-c3cn(C)nc3-c3ccccc3)c2cc1NC(=O)[C@H](C)N(C)C (single isomer, unassigned) [Example 236, (S)-2-(dimethylamino)-N-(7-methoxy-4-(1-methyl-3-phenyl-1H-pyrazol-4-yl)quinazolin-6-yl) propenamide or (R)-2-(dimethylamino)-N-(7-methoxy-4-(1-methyl-3-phenyl-1H-pyrazol-4-yl)quinazolin-6-yl) propenamide] | 3.8 nM | 1.4 nM | 3.9 nM
COc1cc2ncnc(-c3cn(C)nc3-c3ccccc3)c2cc1-c1ccc(OC)c2n[nH]cc12 [Example 151, 7-methoxy-6-(7-methoxy-2H-indazol-4-yl)-4-(1-methyl-3-phenyl-1H-pyrazol-4-yl)quinazoline] | 8.2 nM | 1.9 nM | 8.7 nM
CCn1cc(-c2ncnc3cc(OC)c(NC(=O)[C@@]45C[C@@H]4CN(C)C5)nc23)c(-c2ccc(F)cc2)n1 (single isomer, unassigned) [Example 398, (1S,5S)—N-(4-(1-ethyl-3-(4-fluorophenyl)-1H-pyrazol-4-yl)-7-methoxypyrido[3,2-d]pyrimidin-6-yl)-3-methyl-3-azabicyclo[3.1.0]hexane-1-carboxamide or (1R,5R)—N-(4-(1-ethyl-3-(4-fluorophenyl)-1H-pyrazol-4-yl)-7-methoxypyrido[3,2-d]pyrimidin-6-yl)-3-methyl-3-azabicyclo[3.1.0]hexane-1-carboxamide] | 2.6 nM | 1.4 nM | 1.3 nM
COc1cc2ncnc(-c3cn(CC(F)F)nc3-c3ccccc3)c2nc1NC(=O)[C@@]12C[C@@H]1CN(C)C2 (single isomer, unassigned) [Example 397, (1R,5R)—N-(4-(1-(2,2-difluoroethyl)-3-phenyl-1H-pyrazol-4-yl)-7-methoxypyrido[3,2-d]pyrimidin-6-yl)-3-methyl-3-azabicyclo[3.1.0]hexane-1-carboxamide or (1S,5S)—N-(4-(1-(2,2-difluoroethyl)-3-phenyl-1H-pyrazol-4-yl)-7-methoxypyrido[3,2-d]pyrimidin-6-yl)-3-methyl-3-azabicyclo[3.1.0]hexane-1-carboxamide] | 2.3 nM | 1 nM | 1.6 nM
COc1cc2ncnc(-c3cn(C)nc3-c3ccccc3)c2cc1O[C@H]1CN(C)C[C@H]1F [Example 4, 6-(((3S,4R)-4-fluoro-1-methylpyrrolidin-3-yl)oxy)-7-methoxy-4-(1-methyl-3-phenyl-1H-pyrazol-4-yl)quinazoline] | 4.1 nM | 2.4 nM | 8.5 nM
COc1cc2ncnc(-c3cn(C4COC4)nc3-c3ccccc3)c2cc1OC(=O)N1CCN(C)C[C@@H]1C [Example 69, 7-methoxy-4-(1-(oxetan-3-yl)-3-phenyl-1H-pyrazol-4-yl)quinazolin-6-yl (S)-2,4-dimethylpiperazine-1-carboxylate] | 7.1 nM | 3.1 nM | 5.8 nM
